Measured values published in US11248246B2, “Beta-glucosidase for producing glucose and laminarioligosaccharide from sea weed” (Korea University Research and Business Foundation, priority 2018, dated 2022).
Entries after “also recorded” stand apart in the source; their conditions may differ.

Key:
[1] = biological target: T1, Saccharophagus degradans 2-40^T β-glucosidase Bgl1B, recombinant (6 histidine residues at C-terminus), SEQ ID NO: 1 (nucleotide SEQ ID NO: 2) (Saccharophagus degradans, UniProt Q21KX3); assay: Enzymatic reaction rate of Bgl1B for various substrates (Lineweaver-Burk plot); type: biochemical; details: for Vmax / kcat: pH 6, 40° C., substrate 0.1-0.4% (w/v)
T1 sequence (Q21KX3 1-444): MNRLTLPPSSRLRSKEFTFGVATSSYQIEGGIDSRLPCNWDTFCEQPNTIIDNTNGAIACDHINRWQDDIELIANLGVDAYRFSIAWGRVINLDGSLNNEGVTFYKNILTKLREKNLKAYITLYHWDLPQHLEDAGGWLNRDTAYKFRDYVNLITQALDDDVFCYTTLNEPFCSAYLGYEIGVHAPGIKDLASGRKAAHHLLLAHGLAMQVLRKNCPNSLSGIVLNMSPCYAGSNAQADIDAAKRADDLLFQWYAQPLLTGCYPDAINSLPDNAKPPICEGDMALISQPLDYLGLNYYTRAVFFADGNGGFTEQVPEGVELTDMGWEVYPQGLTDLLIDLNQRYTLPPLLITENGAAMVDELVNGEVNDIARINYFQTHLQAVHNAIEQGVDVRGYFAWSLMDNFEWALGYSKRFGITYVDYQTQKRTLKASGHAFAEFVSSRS
Procedure: To obtain the genomic DNA of Saccharophagus degradans 2-40^T (ATCC43961), Saccharophagus degradans 2-40^T was cultured in a minimal medium containing 2.3 g of instant ocean sea salt, 20 mM Tris-HCl, 2 g of glucose, 1 g of yeast extract, and 0.5 g of ammonium chloride per 1 L at 30° C. for 12 hours. The genomic DNA was extracted using a commercial DNA isolation kit (Qiagen, Valencia, Calif., USA). The target gene bgl1B was amplified from the genomic DNA by PCR. […] To purify the protein by affinity chromatography, the nucleotide sequence of a gene encoding 6 histidine residues at the C-terminus was added. The PCR product and a pET21α vector were digested with NdeI and NotI, respectively, and ligated to construct a pET21α-Bgl1B plasmid. The plasmid was transformed into Escherichia coli DH5α.
To overexpress the obtained gene, the gene was transformed into a protein-expressing host, Escherichia coli B121 (DE3). The cells were cultured in a Luria-Bertani (LB) broth containing 50 mg/L of ampicillin at 37° C. until absorbance at 600 nm reached 0.6. To induce protein expression, 0.1 mM IPTG was added and the induction temperature was set at 16° C., and a protein was allowed to be overexpressed in a water-soluble form for 16 hours. After culture, centrifugation was performed to recover the cells, the cells were released using a 20 mM Tris-HCl buffer (pH 7.4), and then disrupted by ultrasonication and centrifuged again to obtain a supernatant. The recombinant protein was purified using a HisTrap column (GE Healthcare, Piscataway, USA). The purified protein was concentrated using an Amicon Ultra Centrifugal filter (30,000 molecular weight cut-off; Millipore, Billerica, Mass., USA), and the concentration of the protein was measured using a bicinchoninic acid (BCA) protein assay kit (Thermo Fisher Scientific, San Hose, Calif., USA).
(§1) To confirm the enzymatic reaction rate of the Bgl1B protein for various substrates, the Bgl1B protein was allowed to react with each substrate at various concentrations of 0.1-0.4% (w/v) at pH 6 and 40° C. Vmax, Km, and kcat, which are parameters related to an enzymatic reaction rate, were determined from the Lineweaver-Burk plot.

[2] = system: Bgl1B protein; assay: Effect of metal ions on the activity of the Bgl1B protein; type: biochemical, Saccharophagus degradans 2-40^T; details: for Relative enzymatic activity (%) / influence on enzymatic activity: 10 mM metal ion, 0.1% (w/v) cellobiose; for Relative enzymatic activity (%): relative to no metal ion
[3] = system: Novozyme 188; assay: Enzymatic reaction rate of commercialized enzyme Novozyme 188 for substrates (comparison); type: biochemical; details: pH 6, 40° C. (as for Bgl1B)
Procedure: as §1

Compound | Vmax [1] | kcat [1] [s⁻¹] | Relative enzymatic activity (%) [2] [%] | other results
OC[C@H]1O[C@@H](O[C@H]2[C@H]3OC[C@@H]2OC(O)[C@H]3O)[C@H](O)[C@@H](O)[C@H]1O (stereo partly drawn) [Agarobiose, agarobiose] | 3.1 × 10^−1 U/mg protein | 0.26 |  | 
[Ca+2] [Ca^2+] |  |  | 82.0 ± 1.5 | 
OC[C@H]1O[C@@H](O[C@H]2[C@H](O)[C@@H](O)C(O)O[C@@H]2CO)[C@H](O)[C@@H](O)[C@@H]1O (stereo partly drawn) [Cellobiose, cellobiose] | 1.6 × 10^1 U/mg protein | 13 |  | Km [3]: 3400 µM; Vmax [3]: 3.9 × 10^0 U/mg protein; kcat [3]: 7.8 × 10^0 s^−1
[Co+2] [Co^2+] |  |  | 95.7 ± 1.6 | influence on enzymatic activity [2]: does not have a great influence; also recorded: did not have a great influence
[Cu+2] [Cu^2+] |  |  | 0.0 ± 0.0 | 
[Fe+2] [Fe^2+] |  |  | 8.2 ± 0.3 | 
OC[C@H]1O[C@@H](OC[C@H]2OC(O)[C@H](O)[C@@H](O)[C@@H]2O)[C@H](O)[C@@H](O)[C@@H]1O (stereo partly drawn) [Gentiobiose, gentiobiose] | 1.1 × 10^0 U/mg protein | 0.88 |  | 
OC[C@H]1O[C@@H](O[C@H]2[C@H](O)[C@@H](O)C(O)O[C@@H]2CO)[C@H](O)[C@@H](O)[C@H]1O (stereo partly drawn) [Lactose, lactose] | 1.0 × 10^0 U/mg protein | 0.83 |  | 
OC[C@H]1O[C@@H](O[C@H]2[C@H](O)[C@@H](CO)OC(O)[C@@H]2O)[C@H](O)[C@@H](O)[C@@H]1O (stereo partly drawn) [Laminaribiose, laminaribiose] | 1.1 × 10^2 U/mg protein | 91 |  | Vmax, fold greater than Novozyme 188 ([1]; Bgl1B compared to Novozyme 188): 259 fold; catalytic efficiency, fold greater than Novozyme 188 ([1]; Bgl1B compared to Novozyme 188): 108 fold; kcat, fold greater than Novozyme 188 ([1]; Bgl1B compared to Novozyme 188): 108 fold; Km [3]: 2500 µM; Vmax [3]: 4.2 × 10^−1 U/mg protein; kcat [3]: 0.85 s⁻¹
[Mg+2] [Mg^2+] |  |  | 98.9 ± 2.3 | influence on enzymatic activity [2]: does not have a great influence; also recorded: did not have a great influence
[Mn+2] [Mn^2+] |  |  | 52.6 ± 2.1 | inhibits enzymatic activity by ([2]; metal ion, summary statement): about 50%
[Ni+2] [Ni^2+] |  |  | 90.3 ± 2.7 | influence on enzymatic activity [2]: does not have a great influence; also recorded: did not have a great influence
